From ChEMBL document CHEMBL1201862, “PubChem BioAssay data set” (2004)
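Dose response: 5 concentrations. Exposure: 48 h. Format: 96-well plates. Endpoint: linear interpolation; highest concentration if not reached. GI50 is the concentration that inhibits growth by half.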 Active and inactive are the calls of the source. No stated cut-off is given here; in the data, active = GI50 up to about 1.1 µM and inactive = higher.

How the values were obtained:
Experiment in all cases: growth of human tumour cells (NCI), 48 h
NCI-H226 = tested on: NCI-H226
HOP-92 = tested on: HOP-92
NCI-H23 = tested on: NCI-H23
HCT-15 = tested on: HCT-15
UACC-62 = tested on: UACC-62
UO-31 = tested on: UO-31
HCC 2998 = tested on: HCC 2998
SNB-19 = tested on: SNB-19
IGROV-1 = tested on: IGROV-1
HL-60 = tested on: HL-60
OVCAR-8 = tested on: OVCAR-8
OVCAR-4 = tested on: OVCAR-4
TK-10 = tested on: TK-10
A498 = tested on: A498
OVCAR-3 = tested on: OVCAR-3
SR = tested on: SR
CAKI-1 = tested on: CAKI-1
SK-OV-3 = tested on: SK-OV-3
SF-268 = tested on: SF-268
SF-539 = tested on: SF-539

Row | SMILES | GI50 (NCI-H226) | GI50 (HOP-92) | GI50 (NCI-H23) | GI50 (HCT-15) [µM] | GI50 (UACC-62) | GI50 (UO-31) | GI50 (HCC 2998) | GI50 (SNB-19) | GI50 (IGROV-1) | GI50 (HL-60) | GI50 (OVCAR-8) | GI50 (OVCAR-4) | GI50 (TK-10) | GI50 (A498) | GI50 (OVCAR-3) | GI50 (SR) | GI50 (CAKI-1) | GI50 (SK-OV-3) | GI50 (SF-268) | GI50 (SF-539)
1 | COc1ccc2c(c1)c(=Cc1ccc(N(C)C)cc1)c1cc(-c3ccccc3)[n+](C)n12 | 0.15 µM (active) | 0.187 µM (active) | 0.0592 µM (active) | 1.65 | 0.698 µM (active) | 0.596 µM (active) | 0.324 µM (active) | 0.282 µM (active) | 0.144 µM (active) | 0.284 µM (active) | 0.154 µM (active) | 1.28 µM (inactive) | 0.461 µM (active) | 1.33 µM (inactive) | 0.23 µM (active) | 0.337 µM (active) | 1.49 µM (inactive) | 0.447 µM (active) | 0.226 µM (active) | –
2 | N=C(N)N/N=C/c1c(-c2ccc(Cl)c([N+](=O)[O-])c2)nc2sc(Cl)cn12 | 41.4 µM (inactive) | 1.67 µM (inactive) | 3.68 µM (inactive) | 2.29 | 1.95 µM (inactive) | 1.84 µM (inactive) | 3.27 µM (inactive) | 1.79 µM (inactive) | 1.65 µM (inactive) | 3.45 µM (inactive) | 1.77 µM (inactive) | 2.04 µM (inactive) | 28.8 µM (inactive) | 1.95 µM (inactive) | 1.51 µM (inactive) | 1.44 µM (inactive) | 2.34 µM (inactive) | – | 2.68 µM (inactive) | 2.3 µM (inactive)
3 | CC1CCN(c2cc(-c3cc4ccccc4o3)oc(=O)c2C#N)CC1 | > 100 µM (inactive) | 5.9 µM (inactive) | > 100 µM (inactive) | > 100 | – | > 100 µM (inactive) | > 100 µM (inactive) | > 100 µM (inactive) | > 100 µM (inactive) | 65.8 µM (inactive) | > 100 µM (inactive) | 18.8 µM (inactive) | > 100 µM (inactive) | > 100 µM (inactive) | – | > 100 µM (inactive) | 19.9 µM (inactive) | – | > 100 µM (inactive) | 89.1 µM (inactive)
4 | c1ccc(N2CCN(CCCN3CCc4c([nH]c5ccccc45)C3c3cccnc3)CC2)cc1 (centres undefined) | > 100 µM (inactive) | > 100 µM (inactive) | > 100 µM (inactive) | 56 | > 100 µM (inactive) | > 100 µM (inactive) | 40.4 µM (inactive) | > 100 µM (inactive) | > 100 µM (inactive) | 20 µM (inactive) | > 100 µM (inactive) | 98.9 µM (inactive) | 23.7 µM (inactive) | > 100 µM (inactive) | > 49.8 µM (inactive) | 27 µM (inactive) | > 100 µM (inactive) | > 100 µM (inactive) | – | 83.9 µM (inactive)
5 | COc1cc2cc(C(=O)N3C[C@@H](CCl)c4c3cc(N)c3ccccc43)[nH]c2c(OC)c1OC | – | 0.0048 µM (active) | 0.0138 µM (active) | 0.000579 | 0.000895 µM (active) | 0.00622 µM (active) | < 0.01 µM (active) | 0.00665 µM (active) | 0.00611 µM (active) | 0.00318 µM (active) | 0.00451 µM (active) | 0.826 µM (active) | < 0.01 µM (active) | 0.00863 µM (active) | 0.00385 µM (active) | 0.000455 µM (active) | 0.004 µM (active) | 0.00457 µM (active) | 0.119 µM (active) | 0.00213 µM (active)
6 | O=C1OCc2c1cc1cc3c(cc1c2-c1ccc2c(c1)OCO2)OCO3.O=C1OCc2cc3cc4c(cc3c(-c3ccc5c(c3)OCO5)c21)OCO4 | 9.77 µM (inactive) | 13.8 µM (inactive) | 28.8 µM (inactive) | 6.18 | 8.55 µM (inactive) | 14 µM (inactive) | 18.7 µM (inactive) | 30 µM (inactive) | 8.55 µM (inactive) | 34.8 µM (inactive) | 13.5 µM (inactive) | 18 µM (inactive) | 14.4 µM (inactive) | 24.7 µM (inactive) | 4 µM (inactive) | 5.7 µM (inactive) | 11.8 µM (inactive) | 17.8 µM (inactive) | – | –
7 | Cc1cc2c(cc1C)[n+]([O-])c(C(=O)N1CCN(c3ccc([N+](=O)[O-])cc3)CC1)c(C)[n+]2[O-] | – | 23.6 µM (inactive) | 26.5 µM (inactive) | 77.6 | 41.9 µM (inactive) | 28.5 µM (inactive) | 26.8 µM (inactive) | 64.9 µM (inactive) | 27.6 µM (inactive) | > 100 µM (inactive) | 27.5 µM (inactive) | > 100 µM (inactive) | 18.1 µM (inactive) | 27.2 µM (inactive) | > 100 µM (inactive) | > 100 µM (inactive) | > 100 µM (inactive) | 18.2 µM (inactive) | 19 µM (inactive) | 17.7 µM (inactive)
8 | COc1ccc(NC(=O)C(=O)Cc2ccc([N+](=O)[O-])c([N+](=O)[O-])c2CC(=O)C(=O)Nc2ccc(OC)cc2OC)c(OC)c1 | > 100 µM (inactive) | > 100 µM (inactive) | > 100 µM (inactive) | > 100 | > 100 µM (inactive) | > 100 µM (inactive) | > 100 µM (inactive) | > 100 µM (inactive) | > 100 µM (inactive) | > 100 µM (inactive) | > 100 µM (inactive) | > 100 µM (inactive) | > 100 µM (inactive) | > 100 µM (inactive) | > 100 µM (inactive) | > 100 µM (inactive) | > 100 µM (inactive) | > 100 µM (inactive) | > 100 µM (inactive) | –
9 | C=CCOc1ccc(C2c3c(n[nH]c3O)CC(C)(O)C2C(=O)OC)cc1OC (centres undefined) | – | > 100 µM (inactive) | > 100 µM (inactive) | > 100 | > 100 µM (inactive) | > 100 µM (inactive) | > 100 µM (inactive) | > 100 µM (inactive) | > 100 µM (inactive) | > 100 µM (inactive) | > 100 µM (inactive) | > 100 µM (inactive) | > 100 µM (inactive) | > 100 µM (inactive) | > 100 µM (inactive) | > 100 µM (inactive) | > 100 µM (inactive) | – | > 100 µM (inactive) | > 100 µM (inactive)
10 | C/C(=N\NC(=S)Nc1ccc(C(=O)O)cc1)c1ccccn1 | 18.2 µM (inactive) | 43.6 µM (inactive) | 36.9 µM (inactive) | 26.5 | 5.04 µM (inactive) | 11.6 µM (inactive) | 15 µM (inactive) | – | 31.8 µM (inactive) | 20.7 µM (inactive) | 16 µM (inactive) | 15.1 µM (inactive) | 30.6 µM (inactive) | 25 µM (inactive) | 13.7 µM (inactive) | 12.2 µM (inactive) | 29.5 µM (inactive) | – | 49.9 µM (inactive) | 18.3 µM (inactive)
11 | CC(C)(C)[Si](C)(C)O[C@@H](C(=O)OC1C=CCCC1)[C@@H](NC(=O)c1ccccc1)c1ccccc1 (some centres undefined) | 37.8 µM (inactive) | 8.99 µM (inactive) | 29 µM (inactive) | 20 | 26.8 µM (inactive) | 27.7 µM (inactive) | 14.1 µM (inactive) | 28.8 µM (inactive) | 37.3 µM (inactive) | – | 56.4 µM (inactive) | 21.5 µM (inactive) | 16.5 µM (inactive) | 35.6 µM (inactive) | 16.1 µM (inactive) | 15.1 µM (inactive) | 48.6 µM (inactive) | 84.1 µM (inactive) | 69.5 µM (inactive) | 61.1 µM (inactive)
12 | C#CCOCn1cnc2ncnc(Cl)c21 | > 100 µM (inactive) | > 100 µM (inactive) | > 100 µM (inactive) | – | > 100 µM (inactive) | > 100 µM (inactive) | > 100 µM (inactive) | > 100 µM (inactive) | > 100 µM (inactive) | – | > 100 µM (inactive) | > 100 µM (inactive) | > 100 µM (inactive) | > 100 µM (inactive) | > 100 µM (inactive) | > 100 µM (inactive) | > 100 µM (inactive) | > 100 µM (inactive) | > 100 µM (inactive) | > 100 µM (inactive)
13 | Cc1ccc(/C=N/n2c(Cc3ccccc3)n[nH]c2=O)cc1 | > 100 µM (inactive) | 37 µM (inactive) | > 100 µM (inactive) | > 100 | – | > 100 µM (inactive) | > 100 µM (inactive) | > 100 µM (inactive) | > 100 µM (inactive) | > 100 µM (inactive) | > 100 µM (inactive) | > 100 µM (inactive) | > 100 µM (inactive) | > 100 µM (inactive) | > 100 µM (inactive) | > 100 µM (inactive) | 28.6 µM (inactive) | – | > 100 µM (inactive) | > 100 µM (inactive)
14 | C=C1C[C@@H]2CC[C@@]34CC5O[C@H]6C(O[C@H]7CC[C@H](CC(=O)O[C@@H]8[C@@H](C)[C@@H]9O[C@@H]%10C[C@]%11(C[C@@H]%12O[C@]%13(C[C@H](C)[C@@H]%14O[C@@H]%15CC(C(COC(C)=O)OC(C)=O)O[C@@H]%15C[C@@H]%14O%13)C[C@H](C)[C@@H]%12O%11)O[C@@H]%10C[C@@H]9O[C@H]8CC8O[C@@H](CC[C@@H]1O2)C[C@@H](C)C8(O)CO)O[C@@H]7[C@@H]6O3)[C@H]5O4 (some centres undefined) | 0.45 µM (active) | > 1 µM (active) | 0.264 µM (active) | 0.527 | 0.242 µM (active) | > 0.805 µM (active) | 0.00489 µM (active) | 0.701 µM (active) | 0.371 µM (active) | – | 0.668 µM (active) | > 1 µM (active) | > 0.36 µM (active) | > 0.597 µM (active) | 0.431 µM (active) | 0.117 µM (active) | 0.652 µM (active) | > 1 µM (active) | 0.455 µM (active) | –
15 | Cc1ccc(/C=C/C(=O)c2cc(CN(C)C)c(O)c(CN(C)C)c2)cc1 | 22.5 µM (inactive) | 31.9 µM (inactive) | 29 µM (inactive) | 14.4 | – | 15.7 µM (inactive) | 18.5 µM (inactive) | – | 27.4 µM (inactive) | 11.7 µM (inactive) | 21.3 µM (inactive) | – | 28.8 µM (inactive) | 25.2 µM (inactive) | 14.6 µM (inactive) | 18.2 µM (inactive) | 20.7 µM (inactive) | – | 25.9 µM (inactive) | 16.6 µM (inactive)
